Read-outs that look alike come from different tables or passages of the source.
Tests used:
[1] = Kinetic stability of Gd complexes monitored by RP-HPLC (acid, base, DTPA, DOTA, ZnCl2); format: physicochemical
Source text: The kinetic stability of GBCAs, which reflects the dissociation of the Gd ions from its chelate is used to predict the stability in vivo[10]. The proton-assisted dissociation and direct attack of the endogenous ions are regarded as two main pathways that induced the dissociation of the chelates. The inertness of our Gd(III) complexes was maintained up to 7 days after addition of 1000 equivalents of a competitive ligand, DTPA (Supplementary Fig. 7 & 8). […] The harshest condition tried was setting the complexes of [GdL2A]^−, [GdL2B]^− and [GdDOTA]^− in 1N HCl (Fig. 5, Supplementary Figs. 13 - 15).
Fig. […] Error bars for [GdL2A]^- and [GdL2B]^- refer to the standard error of mean (S.E.M.), statistical data fitting analysis (n = 3; s.e.m.)

[2] = Relaxivity measurements at 1.41T and 37 °C; format: physicochemical
Procedure: (§1) Relaxivity measurements were performed on a Bruker mq60 Minispec at 1.41T and 37 °C. Longitudinal (T1) relaxation times were measured using an inversion recovery experiment with 10 inversion times of duration ranging between 0.05 × T1 and 5 × T1. Transverse (T2) relaxation times were measured using a CPMG pulse sequence. Relaxivity (r1, r2) was determined from the slope of a plot of 1/T1,2 vs [Gd] for at least 4 concentrations of Gd(III) (data shown in Supplementary Figs. 93–110). The T2 relaxation times of ^17O at 11.7T were estimated from the full-width at half-height of the H2^17O resonance at temperatures ranging from 278 to 368K. Reduced relaxation rates (1/T2r) were calculated by taking the difference of 1/T2 measured in the presence and absence of Gd(III) and dividing by the mole fraction of coordinated water molecules, assuming q = 1. […] However, at the high magnetic field used, and because of the very-fast water exchange rates observed, there was negligible contribution of T1e, and the data were refit to a two-parameter model using the water exchange rate at 310K (τM) and enthalpy of activation for water exchange (ΔH^‡) as adjustable parameters. The Gd-O hyperfine coupling constant, A/ħ, was assumed to be -3.8 × 10^6 rad s^−1 [57], [58]. Samples were prepared in neat H2O adjusted and enriched with a small amount of H2^17O.

[3] = Gd complexes biodistribution studies (ICP-MS); format: in vivo, BALB/c mice; conditions: 0.025 mmol/kg i.v.; for Gd biodistribution / elimination profile: 5-360 min post injection
Source text: Most commercially available Gd(III)-based MRI contrast agents are excreted rapidly and exclusively through the renal pathway. One of the few exceptions is an acyclic compound, Gd-EOB-DTPA, which has a mixed clearance (50% renal, 50% biliary) and is used for imaging of the liver and biliary system. Gd-BOPTA and MS-325 have predominantly renal elimination with <10% elimination through the biliary system. […] We illustrated with our studies that there is a significant variation in the biodistribution profiles despite the small structural differences of the chiral substituents (Supplementary Fig. 20). Gd biodistribution in BALB/c mice was measured by ICP-MS at 5, 15, 30, 60, 180 and 360 min following injection. […] Low levels of Gd(III) are present at 6 h post injection. […] The specific and unusual localisation of [GdL2]^− in the liver makes it a potential hepatobiliary-specific MRI contrast agent.
(§2) Gd concentrations were determined using an Agilent 8800-QQQ ICP-MS system. All samples were diluted with 0.1% Triton X-100 in 5% nitric acid. Lutetium internal standard was steadily introduced to the ICP-MS from an external source during the analysis. A linear calibration curve for each metal ranging from 0.1 ppb to 200 ppb was generated daily for the quantification.
Complexes [GdL1]^−, [GdL2]^− and [GdL5]^− were prepared by dissolving in saline solution, while [GdDOTA]^− (Dotarem) was diluted in saline solution. Eight-week-old male BALB/c mice (purchased from BioLASCO, Taiwan) each weighing approximately 25 g were administered with a single dose of 0.025 mmol/kg compound ([GdL1]^−, [GdL2]^−, [GdDOTA]^− and [GdL5]^−; 3 mice per compound per time point) in a 100 μl volume via lateral tail vein injection. The mice were then euthanized, and their blood collected by cardiac puncture at each time point (5, 15, 30, 60, 180 or 360 min post injection). A control group of 4 mice was treated with saline and killed at time point 0. The liver, lung, heart, kidneys, spleen and brain were removed from the animals and weighed. Gd content in tissue and blood samples was quantified via ICP-MS analysis. All experiments were performed in accordance with the NIH Guide for the Care and Use of Laboratory Animals and approved by the Institutional Animal Care and Use Committee of Massachusetts General Hospital or by the Department of Health of the Hong Kong Government and the Animal Subjects Ethics Sub-Committee of Hong Kong Polytechnic University.

[4] = cited from earlier work
[5] = cited from earlier work; for elimination through the biliary system: predominantly renal elimination
[6] = 17O NMR water exchange (residence time of water co-ligand); format: physicochemical; conditions: 17O NMR at 11.7T; for τM^310K, mean residence time of the water co-ligand at 310 K: q = 1 assumed
Procedure: as §1

[7] = Ex vivo biodistribution 2 h post injection after MRI study (ICP-MS); format: in vivo, C57/Bl6 mice; conditions: 0.1 mmol per kg i.v.
Procedure: as §2
(§3) Imaging was performed at 4.7T using a small-bore animal scanner (Bruker Biospec). Pilot dynamic MRI studies were performed with [GdL1]^−, [GdL2A]^−, [GdL2B]^− and [GdL5]^−; n = 1 per compound. Six to eight weeks male C57/Bl6 mice were anaesthetised with isoflurane (1%–2%) and placed in a specially designed cradle with body temperature maintained at 37 °C. The tail vein was catherised for intravenous delivery of the contrast agent while the animal was positioned in the scanner. A pneumatic pillow was placed on the mouse to enable respiratory monitoring (SA Instruments), and the animal’s body temperature was maintained with warm air. The imaging protocol utilised a three-dimensional fast low angle shot (3D FLASH) with a […] flip angle, 9.00 ms repetition rate, 2.39 ms echo time, 4.8 cm × 2.4 cm × 2.4 cm field of view with a 0.3 mm isotropic resolution. Images were acquired with either 2 or 8 averages giving an acquisition time of 2 min or 8 min, respectively. Baseline images were acquired with both 2 and 8 averages, then the Gd complex (0.1 mmol per kg) was injected intravenously and the sequence with 2 averages was repeated for a period of 10 min to monitor blood clearance. At 10, 30, 45, 60, 75 and 90 min after probe injection, the sequence with 8 averages was repeated to monitor the clearance of contrast from the liver and kidneys. After imaging was performed, the mouse was removed from the scanner and euthanized at 2 h post injection and the tissues were harvested for Gd quantification by ICP-MS.

[8] = In vivo dynamic T1-weighted MR imaging at 4.7T; design: species or system C57/Bl6 mice; conditions: 0.1 mmol per kg i.v., 4.7 tesla, n = 1
Procedure: Dynamic T1-weighted MR imaging at 4.7 tesla was performed with C57/Bl6 mice before, during, and after 0.1 mmol per kg injection of each compound (Fig. 7).
as §3

O=C([O-])CN1CCN(CC(=O)[O-])CCN(CC(=O)[O-])CCN(CC(=O)[O-])CC1.[Gd+3] [[GdDOTA]^−, reference compound]
half-life of the complex ([1]; 1N HCl, room temperature): < 25 h | half-life of the complex ([1]; 100 equivalents of zinc chloride at 50 °C): ~ 100 h | r1 relaxivity ([2]; 4.5% w/v HSA (1.4T)): 4.1 mM⁻¹ s⁻¹ | r1 relaxivity ([2]; Human Plasma (1.4T)): 4.0 mM⁻¹ s⁻¹ | r1 relaxivity ([2]; Water (1.4T)): 3.2 mM⁻¹ s⁻¹ | Gd biodistribution / elimination profile [3]: rapid elimination from the body via the kidneys | Gd(III) present at 6 h post injection ([3]; ICP-MS): Low levels | ΔH^‡ ([4]; SAP isomer): 13.9 ± 0.598 kcal/mol | τM^310K ([4]; SAP isomer): 141 ns | ΔH^‡ ([4]; TSAP isomer): 10 ± 0.741 kcal/mol | τM^310K ([4]; TSAP isomer): 27 ns

O=C([O-])CN(CCN(CC(=O)[O-])CC(=O)[O-])CCN(CC(=O)[O-])C(COCc1ccccc1)C(=O)[O-].[Gd+3] (stereo not shown) [Gd-BOPTA]
elimination through the biliary system [5]: < 10%

CC[C@H]1CN(CC(=O)[O-])[C@@H](CC)CN(CC(=O)[O-])[C@@H](CC)CN(CC(=O)[O-])[C@@H](CC)CN1CC(=O)[O-].[Gd+3] [[GdL2B]^−]
decomplexation ([1]; 0.1N NaOH, over 10 days): negligible decomplexation | decomplexation ([1]; 1N HCl, room temperature, after 487 h): only minimal decomplexation | decomplexation ([1]; 1N HNO3, over 10 days): negligible decomplexation | stability and interconversion ([1]; one equivalent of DOTA ligand in 1N HCl): no interconversion was observed | τM^310K, mean residence time of the water co-ligand at 310 K [6]: 1.1 ± 0.1 ns | Gd concentration in gall bladder [7]: 1066 nmol Gd per gram tissue | Gd concentration in blood ([7]; listed as GdL2B): 0.60 nmol Gd per gram tissue | Gd concentration in gall bladder ([7]; listed as GdL2B): 1066.22 nmol Gd per gram tissue | Gd concentration in heart ([7]; listed as GdL2B): 3.09 nmol Gd per gram tissue | Gd concentration in intestines ([7]; listed as GdL2B): 47.07 nmol Gd per gram tissue | Gd concentration in kidney ([7]; listed as GdL2B): 7.42 nmol Gd per gram tissue | Gd concentration in liver ([7]; listed as GdL2B): 1.12 nmol Gd per gram tissue | Gd concentration in lung ([7]; listed as GdL2B): 2.63 nmol Gd per gram tissue | Gd concentration in muscle ([7]; listed as GdL2B): 5.43 nmol Gd per gram tissue | Gd concentration in spleen ([7]; listed as GdL2B): 4.82 nmol Gd per gram tissue | Gd concentration in stomach ([7]; listed as GdL2B): 1.05 nmol Gd per gram tissue | Gd concentration in tail ([7]; listed as GdL2B): 2.64 nmol Gd per gram tissue | r1 relaxivity ([2]; 4.5% w/v HSA (1.4T)): 4.8 mM⁻¹ s⁻¹ | r1 relaxivity ([2]; Human Plasma (1.4T)): 4.9 mM⁻¹ s⁻¹ | r1 relaxivity ([2]; Water (1.4T)): 3.9 mM⁻¹ s⁻¹ | MR enhancement of liver and gall bladder [8]: profound enhancement of the liver and gall bladder | MR signal in the kidneys over time / at 60 min post injection [8]: approached baseline

C[C@H](C(=O)[O-])N1CCN([C@H](C)C(=O)[O-])CCN([C@H](C)C(=O)[O-])CCN([C@H](C)C(=O)[O-])CC1.[Gd+3] [Gd-DOTMA]
ΔH^‡ ([4]; SAP isomer): 12.8 ± 0.693 kcal/mol | τM^310K ([4]; SAP isomer): 156 ns | ΔH^‡ ([4]; TSAP isomer): 9.63 ± 0.526 kcal/mol | τM^310K ([4]; TSAP isomer): 26 ns

CCOc1ccc(C[C@@H](CN(CCN(CC(=O)[O-])CC(=O)[O-])CC(=O)[O-])N(CC(=O)[O-])CC(=O)[O-])cc1.[Gd+3].[Na+].[Na+] [Gd-EOB-DTPA]
biliary clearance share ([5]; mixed clearance): 50% | renal clearance share ([5]; mixed clearance): 50%

O=C([O-])CN1CCN(CC(=O)[O-])CCN(CC(=O)[O-])[C@@H](Cc2ccc([N+](=O)[O-])cc2)CN(CC(=O)[O-])CC1.[Gd+3] [Gd-NB-DOTA]
ΔH^‡ ([4]; Mix of isomers): 8.48 kcal/mol | τM^310K ([4]; Mix of isomers): 111 ns

C[C@@H](C(=O)[O-])N1CCN([C@@H](C)C(=O)[O-])CCN([C@@H](C)C(=O)[O-])[C@@H](Cc2ccc([N+](=O)[O-])cc2)CN([C@@H](C)C(=O)[O-])CC1.[Gd+3] [Gd-NB-DOTMA(S-SSSS)]
ΔH^‡ ([4]; S-SSSS = SAP, S-RRR = TSAP): 6.31 kcal/mol | τM^310K ([4]; S-SSSS = SAP, S-RRR = TSAP): 77 ns

CC[C@@H]1CN(CC(=O)[O-])[C@H](CC)CN(CC(=O)[O-])[C@H](CC)CN(CC(=O)[O-])[C@H](CC)CN1CC(=O)[O-].[Gd+3] [[Gd(R)L2B]^−]
ΔH^‡, enthalpy change of activation of water exchange [6]: 2.87 ± 0.406 kcal/mol | τM^310K, mean residence time of the water co-ligand at 310 K [6]: 2.9 ± 0.1 ns | r1 relaxivity ([2]; 4.5% w/v HSA (1.4T)): 4.8 mM⁻¹ s⁻¹ | r1 relaxivity ([2]; Human Plasma (1.4T)): 4.9 mM⁻¹ s⁻¹ | r1 relaxivity ([2]; Water (1.4T)): 3.9 mM⁻¹ s⁻¹

C[C@H](C(=O)[O-])N1CCN([C@H](C)C(=O)[O-])CCN([C@H](C)C(=O)[O-])[C@@H](Cc2ccc([N+](=O)[O-])cc2)CN([C@H](C)C(=O)[O-])CC1.[Gd+3] [Gd-NB-DOTMA(S-RRR)]
ΔH^‡ ([4]; S-SSSS = SAP, S-RRR = TSAP): 6.62 kcal/mol | τM^310K ([4]; S-SSSS = SAP, S-RRR = TSAP): 9.4 ns

CC[C@@H]1CN(CC(=O)[O-])[C@H](CC)CN(CC(=O)[O-])[C@H](CC)CN(CC(=O)[O-])[C@H](CC)CN1CC(=O)[O-].[Gd+3] [[Gd(R)L2A]^−]
ΔH^‡, enthalpy change of activation of water exchange [6]: 7.89 ± 0.502 kcal/mol | τM^310K, mean residence time of the water co-ligand at 310 K [6]: 8.1 ± 0.4 ns | r1 relaxivity ([2]; 4.5% w/v HSA (1.4T)): 4.5 mM⁻¹ s⁻¹ | r1 relaxivity ([2]; Human Plasma (1.4T)): 4.6 mM⁻¹ s⁻¹ | r1 relaxivity ([2]; Water (1.4T)): 3.9 mM⁻¹ s⁻¹

CC[C@H]1CN(CC(=O)[O-])[C@@H](CC)CN(CC(=O)[O-])[C@@H](CC)CN(CC(=O)[O-])[C@@H](CC)CN1CC(=O)[O-].[Gd+3] [[GdL2]^−]
Gd biodistribution / elimination profile [3]: mainly distributed in the liver | Gd(III) detected after 60 min (liver retention) ([3]; ICP-MS): negligible amounts

O=C([O-])CN(CCN(CC(=O)[O-])C[C@H](COP(=O)([O-])OC1CCC(c2ccccc2)(c2ccccc2)CC1)N(CC(=O)[O-])CC(=O)[O-])CC(=O)[O-].[Gd+3].[H+].[H+].[H+] [MS-325]
blood half-life [5]: unusually long | serum albumin binding [5]: extensive serum albumin binding | elimination through the biliary system [5]: < 10%

From PMC5829242, “Chiral DOTA chelators as an improved platform for biomedical imaging and therapy applications” (Nature Communications, 2018)
